Reference: patent US9689021B2, “Method for measuring beta-lactam antibiotics” (priority 2011, dated 2017)
Where two headings read alike, the source gives them in different places.

Assays:
[1] = target: class C beta-lactamase of Enterobacter cloacae P99 (Enterobacter cloacae, UniProt P05364); settings: cited from earlier work
[2] = system: class C beta-lactamase of Enterobacter cloacae 908R; settings: cited from earlier work
[3] = target: class C beta-lactamase of Citrobacter freundii (Citrobacter freundii, UniProt P05193); settings: cited from earlier work
[4] = target: class C beta-lactamase of Escherichia coli K12 (Escherichia coli, UniProt P00811); settings: cited from earlier work
[5] = target: class C beta-lactamase of Serratia marcescens (Serratia marcescens, UniProt P18539); settings: cited from earlier work
[6] = target: class C beta-lactamase of Pseudomonas aeruginosa (Pseudomonas aeruginosa, UniProt P24735); settings: cited from earlier work
[7] = system: Oxa-29 class D beta-lactamase; experiment: BLAC2 method, nitrocefin (CPR) rate with Oxa-29; format: biochemical
Experimental: (§1) The dilution buffer for the enzymes, CPR, standards and samples was 50 mM PBS buffer, pH 7.0.
(§2) The stock solution of CPR was 200 μM. Standards solution of ampicillin and cefuroxime were prepared at 100, 75, 50, 30, 15, 5, 1 and 0 mg/L.
In the method 2 (BLAC2), 99 μl of sample, 99 μl of CPR and 22 μl of enzyme Oxa-29 were mixed. The reaction kinetics was determined by measuring the absorbance at 482 nm as a function of time. Enzyme activity v0 max was adjusted at +/−0.2 ΔAbs482/min.

[8] = target: P99 class C beta-lactamase (Enterobacter cloacae, UniProt P05364); experiment: BLAC1 method, nitrocefin (CPR) rate with P99 (Example 7); format: biochemical
Experimental: as §1, §2
In the method 1 (BLAC1), 10 μl of 50-fold diluted sample, 100 μl of CPR and 100 μl of enzyme P99 were mixed. The reaction kinetics was determined by measuring the absorbance at 482 nm as a function of time. Enzyme activity v0 max was adjusted at +/−0.33 ΔAbs482/min.

[9] = target: T1, P99A266C (Enterobacter cloacae, UniProt P05364, A266C); experiment: Reaction of immobilized enzyme on ATR element with chromogenic substrate CENTA; format: biochemical, Enterobacter cloacae P99
T1 construct: made in house; host or cells: E. coli BL21(DE3), pET28 vector
Experimental: On the N-maleimide functionalized ATR element, the class C beta-lactamase P99A266C prepared as in example 2 was bound.
P99A266C binding onto the functionalized crystal was obtained by depositing 10 μL of a solution (phosphate buffer 50 mM, pH 7) of P99A266C enzyme (30 μg/ml) during 1 h, then rinsing with buffer during 15 min at a rate of 35 μL/min.
The immobilized enzyme was able to react rapidly with its chromogenic substrate CENTA: this was controlled by the appearance of the […] coloration.

[10] = target: T1, P99A266C; experiment: FTIR-ATR biosensor binding; design: species or system Enterobacter cloacae P99; settings: 50-100 μg/mL, 10-20 min, 35 μl/min
Experimental: A solution of the beta-lactam antibiotic cefuroxim; obtained from Sigma-Aldrich in milliQ water at a concentration of 50-100 μg/mL was passed over the biosensor constructed in Example 3. The solution was passed over the crystal during 10-20 min at a rate of 35 μl/min.
FTIR-ATR spectra were recorded and cefuroxim binding was monitored by following the appearance of its characteristic signal. By subtracting the spectrum of the P99A266C, the spectrum of the acyl-enzyme complex appeared clearly. The intensity of the peak at 1730 cm^−1 allowed the quantitative measurement of cefuroxim binding. […] The structure of the acyl-enzyme complex is represented below.

[11] = target: T2, P99A266C beta-lactamase (Enterobacter cloacae, UniProt P05364, A266C); experiment: Kinetic assay, reporter substrate competition (colorimetric assay); format: biochemical, Enterobacter cloacae P99
T2 construct: made in house; host or cells: E. coli BL21(DE3), pET28 vector
Text: (§3) The colorimetric assay used the competition between a reporter substrate and a beta-lactam antibiotic towards the catalytic site of the class C beta-lactamase. In the absence of beta-lactam antibiotic, the class C beta-lactamase P99 hydrolyzed rapidly the reporter substrate and this reaction produced a deep red (nitrocefin) or yellow (CENTA) coloration.
(§4) In the presence of beta-lactam antibiotic, P99 catalytic activity was less available and thus less able to hydrolyze the reporter substrate. Accordingly, the higher the concentration of beta-lactam antibiotic, the lower the coloration of the medium. In this enzymatic competitive kinetic assay, the UV-Visible absorbance was inversely proportional to the concentration of beta-lactam antibiotic.
(§5) Report substrate: A stock solution of reporter substrate consisting of 10 mM of CENTA in HEPES (4-(2-hydroxyethyl)-1-piperazineethanesulfonic acid) pH 7.8 (20 mM)/NaCl (200 mM) buffer was diluted 10 times in HEPES pH 7.8 (20 mM)/NaCl (200 mM) buffer.
(§6) Solution of enzyme: in a spectrophotometer cell, containing HEPES/NaCl buffer (400 μL) and CENTA (100 μL, 100 μM); 20 μL of P99 enzyme solution was added. The concentration of P99 enzyme was variable in function of the preparation and ranged between 0.01 mg/ml to 100 mg/ml. The absorbance variation was measured at 405 nm during 1 min. The enzyme solution used in the experiment was then diluted until the absorbance variation was comprised between 35 and 45 mUAbs/min cm^−1. This diluted solution was further used in this example.
(§7) 8 standard solutions per antibiotic tested were deposited on a 96-well microplate (40 μL).
(§8) The absorbance was measured using a microplate reader, with each column being measured separately. The program comprised following the kinetic during 4 min, with 1 measure at 405 nm every 10 seconds (24 measures). In each well and simultaneously, a mixture of 45 μl HEPES/NaCl buffer and 5 μl P99 solution was added. The same mixture was used for the 8 wells of each column, and thus prepared in advance for distribution with a multi-channel pipette. After 1 min incubation at 20° C., the reading was started, and KC Junior™ software (BioTek Instruments, Winooski, Vt.) was used to calculate the slope of each reaction kinetic. The experiments were made in triplicate and reproduced over 5 different days.
(§9) Kinetic assays with the P99 beta-lactamase and with P99A266C beta-lactamase were performed in order to test and compare the enzyme activities.

[12] = target: T3, P99 beta-lactamase (Enterobacter cloacae, UniProt P05364); experiment: as above; format: biochemical; design: made in house; host or cells: E. coli BL21(DE3), pET28-P99
Text: as §3, §4, §5, §6, §7, §8, §9
Target sequence in this assay (P05364 22-380, added parts left off): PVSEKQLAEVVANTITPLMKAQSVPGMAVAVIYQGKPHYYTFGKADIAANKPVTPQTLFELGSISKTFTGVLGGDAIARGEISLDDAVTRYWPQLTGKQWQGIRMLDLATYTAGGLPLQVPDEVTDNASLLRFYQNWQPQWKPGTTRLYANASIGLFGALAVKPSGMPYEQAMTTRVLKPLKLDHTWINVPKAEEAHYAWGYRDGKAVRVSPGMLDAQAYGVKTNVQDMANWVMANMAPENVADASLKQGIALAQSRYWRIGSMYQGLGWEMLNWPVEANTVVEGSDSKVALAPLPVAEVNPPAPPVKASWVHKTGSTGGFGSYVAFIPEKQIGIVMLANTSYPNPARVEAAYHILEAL

[13] = target: T3, P99 beta-lactamase; format: biochemical
Target sequence in this assay (P05364 21-381): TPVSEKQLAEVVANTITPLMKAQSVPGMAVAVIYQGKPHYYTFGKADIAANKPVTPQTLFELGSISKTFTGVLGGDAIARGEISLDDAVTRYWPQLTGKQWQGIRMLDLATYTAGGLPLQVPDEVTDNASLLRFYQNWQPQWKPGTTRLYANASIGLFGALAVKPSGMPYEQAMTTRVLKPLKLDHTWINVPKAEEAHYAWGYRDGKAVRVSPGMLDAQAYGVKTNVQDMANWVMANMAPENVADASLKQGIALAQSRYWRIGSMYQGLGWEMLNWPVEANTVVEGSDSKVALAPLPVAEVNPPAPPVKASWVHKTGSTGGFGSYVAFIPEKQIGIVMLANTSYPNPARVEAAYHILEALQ

class C beta-lactamase of Escherichia coli K12, sequence (P00811 20-377): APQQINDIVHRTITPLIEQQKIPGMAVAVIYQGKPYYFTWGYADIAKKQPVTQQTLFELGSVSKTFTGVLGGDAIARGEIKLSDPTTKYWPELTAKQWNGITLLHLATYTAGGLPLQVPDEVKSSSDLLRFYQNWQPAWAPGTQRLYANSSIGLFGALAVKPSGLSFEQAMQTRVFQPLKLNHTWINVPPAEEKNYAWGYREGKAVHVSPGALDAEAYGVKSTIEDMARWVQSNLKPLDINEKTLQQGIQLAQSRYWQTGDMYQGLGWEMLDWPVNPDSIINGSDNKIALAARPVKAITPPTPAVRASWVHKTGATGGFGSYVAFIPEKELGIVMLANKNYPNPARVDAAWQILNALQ
class C beta-lactamase of Pseudomonas aeruginosa, sequence (P24735 27-397): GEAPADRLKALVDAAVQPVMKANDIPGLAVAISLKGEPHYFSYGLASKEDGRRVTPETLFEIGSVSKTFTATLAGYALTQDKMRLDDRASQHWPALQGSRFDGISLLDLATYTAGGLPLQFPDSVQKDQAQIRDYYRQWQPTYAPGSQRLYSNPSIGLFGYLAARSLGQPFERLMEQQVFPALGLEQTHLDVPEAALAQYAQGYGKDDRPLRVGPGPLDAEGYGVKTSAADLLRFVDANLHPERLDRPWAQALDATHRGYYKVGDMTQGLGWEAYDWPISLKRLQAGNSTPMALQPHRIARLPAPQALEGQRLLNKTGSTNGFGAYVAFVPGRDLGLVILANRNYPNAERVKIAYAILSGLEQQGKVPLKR
class C beta-lactamase of Serratia marcescens, sequence (P18539 22-376): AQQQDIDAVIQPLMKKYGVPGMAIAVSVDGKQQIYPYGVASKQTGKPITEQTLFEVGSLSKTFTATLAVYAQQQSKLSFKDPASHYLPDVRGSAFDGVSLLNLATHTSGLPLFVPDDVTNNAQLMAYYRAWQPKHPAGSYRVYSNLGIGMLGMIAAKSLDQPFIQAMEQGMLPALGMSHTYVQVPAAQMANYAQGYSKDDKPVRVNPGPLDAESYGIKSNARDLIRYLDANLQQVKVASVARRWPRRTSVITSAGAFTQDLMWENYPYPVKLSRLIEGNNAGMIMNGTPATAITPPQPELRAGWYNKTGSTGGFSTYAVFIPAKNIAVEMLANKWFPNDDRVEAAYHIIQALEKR
P99 class C beta-lactamase, sequence (P05364 21-381): as the sequence (P05364 21-381) above
class C beta-lactamase of Enterobacter cloacae P99, sequence (P05364 21-381): as above
class C beta-lactamase of Citrobacter freundii, sequence (P05193 21-381): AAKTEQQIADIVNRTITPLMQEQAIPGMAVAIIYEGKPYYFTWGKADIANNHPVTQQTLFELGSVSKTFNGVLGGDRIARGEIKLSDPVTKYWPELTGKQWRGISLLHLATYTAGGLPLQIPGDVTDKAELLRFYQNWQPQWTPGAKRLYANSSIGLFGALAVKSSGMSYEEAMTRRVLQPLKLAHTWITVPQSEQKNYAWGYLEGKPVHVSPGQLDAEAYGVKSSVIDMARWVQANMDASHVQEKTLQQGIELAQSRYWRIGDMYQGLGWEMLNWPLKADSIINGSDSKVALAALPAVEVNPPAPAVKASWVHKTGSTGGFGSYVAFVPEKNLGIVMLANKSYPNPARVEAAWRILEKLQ
T2 sequence (P05364 other isoform, or with tags, fused parts or gaps A266C): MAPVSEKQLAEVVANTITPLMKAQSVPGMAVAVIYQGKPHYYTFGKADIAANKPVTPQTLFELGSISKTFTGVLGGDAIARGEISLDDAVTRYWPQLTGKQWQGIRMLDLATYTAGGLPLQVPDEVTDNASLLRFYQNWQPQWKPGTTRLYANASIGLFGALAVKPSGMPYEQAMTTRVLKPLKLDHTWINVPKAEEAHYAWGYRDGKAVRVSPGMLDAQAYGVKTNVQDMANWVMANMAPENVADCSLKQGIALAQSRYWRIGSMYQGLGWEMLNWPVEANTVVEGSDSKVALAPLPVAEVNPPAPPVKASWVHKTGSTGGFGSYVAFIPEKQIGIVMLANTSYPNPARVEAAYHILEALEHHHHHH
T1 sequence (P05364 other isoform, or with tags, fused parts or gaps A266C): as above

## CC1(C)S[C@@H]2[C@H](NC(=O)Cc3ccccc3)C(=O)N2[C@H]1C(=O)O [Benzylpenicillin]
[1]
  Km: 600 nM
  kcat: 14 s⁻¹
[2]
  Km: 0.5 µM
  kcat: 18 s⁻¹
[3]
  Km: 400 nM
  kcat: 31 s⁻¹
[4]
  kcat: 45 s⁻¹
[5]; Serratia marcescens
  kcat: 75 s⁻¹
[5]
  Km: 1.7 µM
[6]; Pseudomonas aeruginosa
  kcat: 76 s⁻¹
[6]
  Km: 1.7 µM

## CO/N=C(\C(=O)N[C@@H]1C(=O)N2C(C(=O)O)=C(COC(N)=O)CS[C@H]12)c1ccco1 [Cefuroxime]
[7]; BLAC2, 1 mg/L
  rate of Oxa-29 Class D beta-lactamase: 0.2079 ΔAbs482/min
  residual rate minus 1, (vomax/v0)−1, Oxa-29: 0.072
[7]; BLAC2, 5 mg/L
  rate of Oxa-29 Class D beta-lactamase: 0.2025 ΔAbs482/min
  residual rate minus 1, (vomax/v0)−1, Oxa-29: 0.100
[7]; BLAC2, 15 mg/L
  rate of Oxa-29 Class D beta-lactamase: 0.2011 ΔAbs482/min
  residual rate minus 1, (vomax/v0)−1, Oxa-29: 0.108
[7]; BLAC2, 30 mg/L
  rate of Oxa-29 Class D beta-lactamase: 0.1992 ΔAbs482/min
  residual rate minus 1, (vomax/v0)−1, Oxa-29: 0.118
[7]; BLAC2, 50 mg/L
  rate of Oxa-29 Class D beta-lactamase: 0.1897 ΔAbs482/min
  residual rate minus 1, (vomax/v0)−1, Oxa-29: 0.174
[7]; BLAC2, 75 mg/L
  rate of Oxa-29 Class D beta-lactamase: 0.1796 ΔAbs482/min
  residual rate minus 1, (vomax/v0)−1, Oxa-29: 0.241
[7]; BLAC2, 100 mg/L
  rate of Oxa-29 Class D beta-lactamase: 0.1749 ΔAbs482/min
  residual rate minus 1, (vomax/v0)−1, Oxa-29: 0.274
[7]; BLAC2, X in mg/L
  linear regression coefficient a (Y=aX+b), Oxa-29: 0.0023
  linear regression coefficient b (Y=aX+b), Oxa-29: 0.0003
[8]; BLAC1, 1 mg/L
  rate of P99 class C beta-lactamase: 0.3247 ΔAbs482/min
  residual rate minus 1, (vomax/v0)−1, P99: 0.048
[8]; BLAC1, 5 mg/L
  rate of P99 class C beta-lactamase: 0.2763 ΔAbs482/min
  residual rate minus 1, (vomax/v0)−1, P99: 0.232
[8]; BLAC1, 15 mg/L
  rate of P99 class C beta-lactamase: 0.1938 ΔAbs482/min
  residual rate minus 1, (vomax/v0)−1, P99: 0.756
[8]; BLAC1, 30 mg/L
  rate of P99 class C beta-lactamase: 0.1417 ΔAbs482/min
  residual rate minus 1, (vomax/v0)−1, P99: 1.402
[8]; BLAC1, 50 mg/L
  rate of P99 class C beta-lactamase: 0.0957 ΔAbs482/min
  residual rate minus 1, (vomax/v0)−1, P99: 2.556
[8]; BLAC1, 75 mg/L
  rate of P99 class C beta-lactamase: 0.0736 ΔAbs482/min
  residual rate minus 1, (vomax/v0)−1, P99: 3.624
[8]; BLAC1, 100 mg/L
  rate of P99 class C beta-lactamase: 0.0539 ΔAbs482/min
  residual rate minus 1, (vomax/v0)−1, P99: 5.314
[8]; BLAC1, X in mg/L
  linear regression coefficient a (Y=aX+b), P99: 0.0518
  linear regression coefficient b (Y=aX+b), P99: 0.0013
[9]
  reaction of immobilized enzyme with chromogenic substrate when antibiotic fixed: did not occur
[10]
  binding to P99A266C biosensor (FTIR-ATR): fixed to P99A266C (acyl-enzyme complex)
[1]
  kcat: 0.05 s⁻¹
[1]; read-out: Km
  Km: 16 nM
[2]
  kcat: 0.05 s⁻¹
[3]
  kcat: 0.04 s⁻¹
[3]; read-out: Km
  Km: 20 nM
[4]
  kcat: 0.15 s⁻¹
[4]; read-out: Km
  Km: 150 nM
[5]; Serratia marcescens
  kcat: 0.8 s⁻¹
[5]; Serratia marcescens, read-out: Km
  Km: 0.6 µM
[6]; Pseudomonas aeruginosa
  kcat: 0.05 s⁻¹
[6]; Pseudomonas aeruginosa, read-out: Km
  Km: 0.02 µM

## O=C(Cc1cccs1)N[C@@H]1C(=O)N2C(C(=O)[O-])=C(C[n+]3ccccc3)CS[C@H]12 [Cephaloridine]
[1]
  kcat: 700 s⁻¹
[2]
  Km: 75 µM
  kcat: 600 s⁻¹
[3]
  kcat: 700 s⁻¹
[4]
  kcat: 130 s⁻¹
[5]; Serratia marcescens
  kcat: 1100 s⁻¹
[5]
  Km: 275 µM
[6]; Pseudomonas aeruginosa
  kcat: 110 s⁻¹
[6]
  Km: 20 µM

## O=C(Cc1cccs1)N[C@@H]1C(=O)N2C(C(=O)O)=C(/C=C/c3ccc([N+](=O)[O-])cc3[N+](=O)[O-])CS[C@H]12 [Nitrocefin]
[1]
  kcat: 780 s⁻¹
[1]; read-out: Km
  Km: 25000 nM
[2]
  Km: 23 µM
  kcat: 780 s⁻¹
[3]
  kcat: 330 s⁻¹
[4]
  kcat: 490 s⁻¹
[5]; Serratia marcescens
  kcat: 1240 s⁻¹
[5]
  Km: 40 µM
[6]; Pseudomonas aeruginosa
  kcat: 742 s⁻¹
[6]
  Km: 27 µM

## CCN1CCN(C(=O)N[C@@H](C(=O)N[C@@H]2C(=O)N3[C@@H]2SC(C)(C)[C@@H]3C(=O)O)c2ccccc2)C(=O)C1=O [Piperacillin]
[11]; antibiotic 5 ug/ml
  Diff. (%) P99 vs P99A266C: 16%
  P99A266C rate: 8.3 mUAbs/min
[11]; antibiotic 10 ug/ml
  Diff. (%) P99 vs P99A266C: 4%
  P99A266C rate: 6.1 mUAbs/min
[11]; antibiotic 20 ug/ml
  Diff. (%) P99 vs P99A266C: 6%
  P99A266C rate: 3.8 mUAbs/min
[11]; antibiotic 40 ug/ml
  Diff. (%) P99 vs P99A266C: −4%
  P99A266C rate: 2.5 mUAbs/min
[12]; antibiotic 5 ug/ml
  P99 rate: 9.7 mUAbs/min
[12]; antibiotic 10 ug/ml
  P99 rate: 6.4 mUAbs/min
[12]; antibiotic 20 ug/ml
  P99 rate: 4.0 mUAbs/min
[12]; antibiotic 40 ug/ml
  P99 rate: 2.4 mUAbs/min

## ampicillin-fluorescein [Ampi-flu]
[13]; 0.1 mg/L
  v0 (standard curve): 0.2638 ΔAbs482/min
  v0/v0max (standard curve): 98%
[13]; 0.5 mg/L
  v0 (standard curve): 0.2336 ΔAbs482/min
  v0/v0max (standard curve): 87%
[13]; 1.5 mg/L
  v0 (standard curve): 0.169 ΔAbs482/min
  v0/v0max (standard curve): 63%
[13]; 3 mg/L
  v0 (standard curve): 0.1064 ΔAbs482/min
  v0/v0max (standard curve): 39%
[13]; 5 mg/L
  v0 (standard curve): 0.063 ΔAbs482/min
  v0/v0max (standard curve): 23%
[13]; 7.5 mg/L
  v0 (standard curve): 0.0389 ΔAbs482/min
  v0/v0max (standard curve): 14%
[13]; 10 mg/L
  v0 (standard curve): 0.025 ΔAbs482/min
  v0/v0max (standard curve): 9%
[13]; sample 3, calculated from equation 3
  v0/v0max due to ampi-flu: 59%
